In patent publication US20240277684A1, “BLOCKADE OF CHEMOKINE (C-C MOTIF) RECEPTOR 2 DURING FLUID RESUSCITATION” (University of South Florida, priority 2022, published 2024):

Experiments:
[1] = tested on: hemorrhagic shock; test: Example 1 first series: 30 min hemorrhagic shock, fluid resuscitation until t=90 min; format: in vivo, rat
Experimental: In vivo animal experiments. All procedures were performed in accordance with the National Institutes of Health Guidelines for Use of Laboratory Animals and were approved by the University of South Florida Institutional Animal Care and Use Committeee (IS00008139). Male Sprague-Dawley rats (300-400 g, Envigo, Indianapolis, IN, USA). were anesthetized with 1.7% isoflurane via nose-cone inhalation with the SomnoSuite anesthesia system (Kent Scientific, Torrington, CT, USA). […] The left femoral artery was isolated and cannulated with a 24-gauge peripheral intravenous catheter to allow for blood withdrawal, hemodynamic monitoring, drug administration, and fluid resuscitation. Hemodynamics were continuously monitored with the SurgivetV6400 blood pressure monitor (Med-Electronics, Beltsville, MD, USA), and blood pressures and heart rate were recorded at 1-10 min intervals. All animals were observed over a 10 min period to ensure hemodynamic stability before start of the experiments. All experiments were performed randomized in alternating order. […] Physiol Res 2019; 68(4):675-679; Nassoiy S P, et al., Effects of the Kv7 voltage-activated potassium channel inhibitor linopirdine in rat models of haemorrhagic shock. Clin Exp Pharmacol Physiol 2018; Nassoiy S P, et al., Kv7 voltage-activated potassium channel inhibitors reduce fluid resuscitation requirements after hemorrhagic shock in rats. J Biomed Sci 2017; 24(1):8; Bach H Ht, et al., Proteasome inhibition prolongs survival during lethal hemorrhagic shock in rats. J Trauma Acute Care Surg 2013; 74(2):499-507; Bach H Ht, et al., Chemokine (C-X-C motif) receptor 4 and atypical chemokine receptor 3 regulate vascular alpha(1)-adrenergic receptor function. Mol Med 2014; 20:435-447), with slight modifications. In brief, rats were hemorrhaged to a mean arterial blood pressure (MAP) of less than or equal to 30 mmHg for a period of 30 minutes. At the end of the HS period (t=30 min), animals were injected with either vehicle (1 mL LR) or drug in 1 mL LR, followed by fluid resuscitation with 1 mL bolus injections of LR to maintain a systolic blood pressure (SBP) of 90 mmHg or a MAP of 60 mmHg. To avoid fluid overload, bolus injections of LR were limited to 1 mL/min. […] Animals were then resuscitated until t=90 min. At t=0, 15, 30, 60 and 90 min, blood samples were obtained, and plasma prepared. Samples were stored at -70° C. until further processing. At t=90 min, animals were euthanized (isoflurane inhalation, bilateral pneumothorax).

[2] = tested on: hemorrhagic shock; test: Example 2 Series 2: 60 min hemorrhagic shock, single dose, fluid resuscitation until t=300 min; format: in vivo, rat
Experimental: The hemorrhagic shock models were performed as described previously, with slight modifications (DeSantis A J, et al., The Chemokine (C-C Motif) Receptor 2 Antagonist INCB3284 Reduces Fluid Requirements and Protects From Hemodynamic Decompensation During Resuscitation From Hemorrhagic Shock. Crit Care Explor 2022;4(5):e0701; Bach H H, et al., Chemokine (C-X-C motif) receptor 4 and atypical chemokine receptor 3 regulate vascular alpha(1)-adrenergic receptor function. Mol Med 2014; 20:435-47; Nassoiy S P, et al., Effects of the Kv7 voltage activated potassium channel inhibitor linopirdine in rat models of hemorrhagic shock. Clin Exp Pharmacol Physiol 2018. doi: 10.1111/1440-1681.12958. PubMed PMID: 29702725; Bach H H, et al., Proteasome inhibition prolongs survival during lethal hemorrhagic shock in rats. J Trauma Acute Care Surg 2013; 74(2):499-507). In brief, anesthesia induction was performed with the animal and isoflurane-soaked gauze placed in a bell jar. After anesthesia induction, the animals were transferred to the operative field and anesthesia was maintained with 2.7% isoflurane administered via nose-cone inhalation with the SomnoSuite small animal anesthesia system (Kent Scientific Corporation, Torrington, CT, USA). […] Using a direct cut-down technique, the left femoral artery was isolated and cannulated with a 24-gauge peripheral intravenous catheter to allow for blood withdrawal, hemodynamic monitoring, drug administration, and fluid resuscitation. After catheter placement, isoflurane was decreased to 1.5%. Hemodynamics were continuously monitored with the Surgivet invasive blood pressure monitor (Med-Electronics, Beltsville, MD, USA). Blood pressures were recorded at 1-5 min intervals during the hemorrhage and resuscitation periods. Four subsequent series of experiments were performed. All experiments in each series were performed in alternating order. In all experiments animals were continuously monitored and remained under general anesthesia until euthanasia or death, as defined by asystole or loss of pulse pressure.
Series 2: Rats were hemorrhaged to a MAP of less than or equal to 30 mmHg for a period of 60 min, followed by fluid resuscitation until t=300 min as in Series 1. At the end of the hemorrhagic shock period (t=60 min), animals were injected with 1 mL of normal saline (NS) (n=6), 5 μmol/kg (n=6) INCB3284 in 1 mL NS or 1.1 μmol/kg SB 328437 (n=6) in 1 mL NS at t=60 min. At t=0 min, 60 min, 120 min, 180 min, 240 min and 300 min, blood samples (0.3 ml) were obtained and used for arterial blood gas analyses and measurements of routine laboratory parameters. At t=300 min, surviving animals were euthanized (5% isoflurane inhalation, bilateral pneumothorax).
Arterial blood gases and routine laboratory parameters. Arterial blood gases, electrolytes, creatinine, lactate, hematocrit and hemoglobin were analyzed using the Element point of care veterinary blood gas, electrolyte and critical care analyzer (Cuattro Veterinary USA, Loveland, CO, USA).

[3] = molecular target: CCR2 (Homo sapiens, UniProt P41597); settings: read-out: IC50, inhibiting monocyte chemoattractant protein-1 binding to hCCR2; cited from earlier work
[4] = rats; cited from earlier work

Sequence of CCR2 (P41597 whole entry): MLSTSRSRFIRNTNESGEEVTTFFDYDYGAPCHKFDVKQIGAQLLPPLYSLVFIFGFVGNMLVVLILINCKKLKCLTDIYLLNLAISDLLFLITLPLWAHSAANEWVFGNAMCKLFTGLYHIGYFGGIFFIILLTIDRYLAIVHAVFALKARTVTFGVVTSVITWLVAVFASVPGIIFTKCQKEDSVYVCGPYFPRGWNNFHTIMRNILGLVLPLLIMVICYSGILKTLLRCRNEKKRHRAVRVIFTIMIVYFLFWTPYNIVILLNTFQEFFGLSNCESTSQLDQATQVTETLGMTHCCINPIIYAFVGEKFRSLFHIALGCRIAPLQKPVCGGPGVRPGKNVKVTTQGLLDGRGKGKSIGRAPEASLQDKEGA

With `COc1ccc([C@]2(O)CC[C@@H](N3CC[C@@H](NC(=O)CNC(=O)c4cccc(C(F)(F)F)c4)C3)CC2)cn1` [INCB3284] the “fluid requirements to maintain hemodynamics” value ([1]; 1.1 μmol/kg at t=30 min, until t=90 min, p>0.05 vs. vehicle) was 50 ± 1 mL/kg, the “effect on fluid requirements to maintain hemodynamics” value ([1]; 1.1 μmol/kg at t=30 min, vs vehicle) was “did not affect fluid requirements” and the “MAP during the observation period” value ([1]; 5.5 μmol/kg at t=30 min) was “increased MAP at various time points”. The “reduction of fluid requirements” value ([1]; 5.5 μmol/kg at t=30 min, until t=90 min, vs vehicle) was 58±11%, the “fluid requirements to maintain hemodynamics” value ([1]; 5.5 μmol/kg at t=30 min, until t=90 min, p<0.05 vs. vehicle) was 21.7 ± 6 mL/kg and the median survival time ([2]; 1.1 μmol/kg SB328437 or 5 μmol/kg INCB3284 at t=60 min) was “undefined”. The “animals that survived the resuscitation period” value ([2]; 1.1 μmol/kg SB328437 or 5 μmol/kg INCB3284 at t=60 min, until t=300 min, n=6) was “all”, the “reduction of fluid resuscitation requirements to achieve the target MAP” value ([2]; 5 μmol/kg at t=60 min, until t=220 min, p<0.05 vs. vehicle) was 65% and the IC50 [3] was 3.7 nM. For the same molecule, the half-live [4] was 168 min.
